The record followed here is patent US20220002268A1, “NOVEL HETEROARYL-TRIAZOLE AND HETEROARYL-TETRAZOLE COMPOUNDS AS PESTICIDES” (Bayer Aktiengesellschaft, priority 2019, published 2022).

For series [1], the system named is Ctenocephalides felis. Kind of series: Ctenocephalides felis oral test. It counts as in vivo. The note with it: 48 h, 100 ppm in cattle blood, after 2 days. How it is done:
Ctenocephalides felis—Oral Test Solvent: dimethyl sulfoxide
To produce a suitable preparation of active compound, 10 mg of active compound are dissolved in 0.5 ml solvent, and the concentrate is diluted with cattle blood to the desired concentration.
Approximately 20 adult unfed cat fleas (Ctenocephalides felis) are placed in flea chambers. The blood chamber, sealed with parafilm on the bottom, are filled with cattle blood supplied with compound solution and placed on the gauze covered top of the flea chamber, so that the fleas are able to suck the blood. The blood chamber is heated to 37° C. whereas the flea chamber is kept at room temperature.
After 2 days mortality in % is determined. 100% means all the fleas have been killed; 0% means none of the fleas have been killed.

Series [2] deals with Myzus persicae. Kind of series: Myzus persicae oral test. Type of series: in vivo. The note with it: 120 h, after 5 days. How it is done:
Myzus persicae—Oral Test Solvent: 100 parts by weight acetone
To produce a suitable preparation of active compound, 1 part by weight of active compound is mixed with the stated amount of solvent, and the concentrate is diluted with water to the desired concentration.
50 μl compound solution is filled in microtiter plates and 150 μl IPL41 insect medium (33%+15% sugar) is added to obtain a total volume of 200 μl per well. Afterwards the plates are sealed with parafilm through which a mixed population of the green peach aphid (Myzus persicae) can suck on the compound preparation.
After 5 days mortality in % is determined. 100% means all aphids have been killed and 0% means none of the aphids have been killed.

Series [3] has as its system Diabrotica balteata. Kind of series: Diabrotica balteata spray test. It counts as in vivo. The note with it: 168 h, 160 gg/well, after 7 days, read-out: efficacy (seedlings grown). The procedure: Diabrotica balteata—Spray Test Solvent: 78.0 parts by weight of acetone • • 1.5 parts by weight of dimethylformamide Emulsifier: alkylarylpolyglycol ether
To produce a suitable preparation of active compound, 1 part by weight of active compound is mixed with the stated amount of solvent, and the concentrate is diluted with water, containing an emulsifier concentration of 1000 ppm, to the desired concentration. Further test concentrations are prepared by dilution with emulsifier containing water.
Soaked wheat seeds (Triticum aestivum) are placed in a multiple well plate filled with agar and some water and are incubated for 1 day to germinate (5 seeds per well). The germinated wheat seeds are sprayed with a test solution containing the desired concentration of the active ingredient. Afterwards each unit is infected with 10-20 larvae of the banded cucumber beetle (Diabrotica balteata).
After 7 days efficacy in % is determined. 100% means all the seedlings have grown up like in the untreated, uninfected control; 0% means none of the seedlings have grown.

In series [4] the test system is Phaedon cochleariae. In words: Phaedon cochleariae spray test. Type of series: in vivo. The note with it: 168 h, after 7 days. The procedure:
Phaedon cochleariae—Spray Test Solvent: 78.0 parts by weight of acetone • • 1.5 parts by weight of dimethylformamide Emulsifier: alkylarylpolyglycol ether
(§1) To produce a suitable preparation of active compound, 1 part by weight of active compound is mixed with the stated amount of solvents and is diluted with water, containing an emulsifier concentration of 1000 ppm, to the desired concentration. Further test concentrations are prepared by dilution with emulsifier containing water.
Chinese cabbage (Brassica pekinensis) leaf disks are sprayed with a preparation of the active ingredient of the desired concentration. Once dry, the leaf disks are infested with mustard beetle larvae (Phaedon cochleariae).
After 7 days mortality in % is determined. 100% means all beetle larvae have been killed and 0% means none of the beetle larvae have been killed.

Series [5] relates to Boophilus microplus. In words: Boophilus microplus injection test. Type of series: in vivo. The note with it: Rhipicephalus microplus, 168 h; 20 gg/animal, injection into abdomen, after 7 days; read-out: efficacy (infertile eggs). How it is done: Boophilus microplus—Injection Test Solvent: dimethyl sulfoxide To produce a suitable preparation of active compound, 10 mg of active compound are dissolved in 0.5 ml solvent, and the concentrate is diluted with solvent to the desired concentration. Five adult engorged female ticks (Boophilus microplus) are injected with 1 μl compound solution into the abdomen. The ticks are transferred into replica plates and incubated in a climate chamber. After 7 days egg deposition of fertile eggs is monitored. Eggs where fertility is not visible are stored in a climate chamber till hatching after about 42 days. An efficacy of 100% means all eggs are infertile; 0% means all eggs are fertile.

In series [6] the test system is Aedes aegypti strain MONHEIM. Kind of series: Aedes aegypti test (AEDSAE surface treatment & contact assay). Type of series: in vivo. The note with it: surface concentration 20 mg/m^2, 30 minutes exposure, 24 hours after contact, read-out: efficacy (mortality). How it is done: Aedes aegyti Test (AEDSAE Surface Treatment & Contact Assay) Solvent: Aceton+2000 ppm rapeseed oil methyl ester (RME)
In order to produce a sufficient, active ingredient containing solution it is necessary to solve the test compound in the solvent-mix (acetone at 2 mg/ml/RME 2000 ppm). This solution is pipetted onto a glazed tile and after evaporation of the acetone, adult mosquitoes of the species Aedes aegypti strain MONHEIM are placed onto the dried surface. The exposure time is 30 minutes.
Mortality in percent (%) is determined 24 hours after contact to the treated surface. 100% mortality means that all tested insects are dead, whereas 0% means that no insect died.

Series [7] deals with Ctenocephalides felis. In words: Ctenocephalides felis in-vitro contact test, adult cat flea. The note with it: 5 μg/cm^2, after 48 hours. It counts as in vivo. The procedure: (§2) 9 mg compound is solved in 1 ml acetone and diluted with acetone to the desired concentration. 250 μl of the test solution is filled in 25 ml glass test tubes and homogeneously distributed on the inner walls by rotation and tilting on a shaking device (2 h at 30 rpm). With a compound concentration of 900 ppm, an inner surface of 44.7 cm^2 and a homogeneous distribution, a dose of 5 μg/cm^2 is achieved.
After the solvent has evaporated, each test tube is filled with 5-10 adult cat fleas (Ctenocephalides felis), closed with a perforated lid and incubated in a lying position at room temperature and relative humidity. After 48 hours efficacy is determined. The fleas are patted on the ground of the tubes and are incubated on a heating plate at 45-50° C. for at most 5 minutes. Immotile or uncoordinated moving fleas, which are not able to escape the heat by climbing upwards, are marked as dead or moribund.
An efficacy of 100% means all fleas are dead or moribund; 0% means no fleas are dead or moribund.

Series [8] relates to Nilaparvata lugens. In words: Nilaparvata lugens spray test. Type of series: in vivo. The note with it: 96 h, after 4 days. The procedure: Nilaparvata lugens—Spray Test Solvent: 78.0 parts by weight of acetone • • 1.5 parts by weight of dimethylformamide Emulsifier: alkylarylpolyglycol ether
as §1
Rice plants (Oryza sativa) are sprayed with a preparation of the active ingredient of the desired concentration and the plants are infested with the brown planthopper (Nilaparvata lugens).
After 4 days mortality in % is determined. 100% means all planthoppers have been killed and 0% means none of the planthoppers have been killed.

Series [9] relates to Rhipicephalus sanguineus. Kind of series: Rhipicephalus sanguineus in-vitro contact test, adult brown dog ticks. It counts as in vivo. The note with it: 5 gg/cm^2, after 48 hours. The procedure:
as §2
After the solvent has evaporated, each test tube is filled with 5-10 adult brown dog ticks (Rhipicephalus sanguineus), closed with a perforated lid and incubated in a lying position at room temperature and relative humidity. After 48 hours efficacy is determined. The ticks are patted on the ground of the tubes and are incubated on a heating plate at 45-50° C. for at most 5 minutes. Immotile or uncoordinated moving ticks, which are not able to escape the heat by climbing upwards, are marked as dead or moribund.
An efficacy of 100% means all ticks are dead or moribund; 0% means no ticks are dead or moribund.

Series [10] deals with Spodoptera frugiperda. Kind of series: Spodoptera frugiperda spray test. Type of series: in vivo. The note with it: 168 h, after 7 days. How it is done:
Suodontera frugiuerda—Spray Test Solvent: 78.0 parts by weight acetone • 1.5 parts by weight dimethylformamide Emulsifier: alkylarylpolyglycol ether
as §1
Maize (Zea mays) leaf sections are sprayed with a preparation of the active ingredient of the desired concentration. Once dry, the leaf sections are infested with fall armyworm larvae (Spodoptera frugiperda).
After 7 days mortality in % is determined. 100% means all caterpillars have been killed and 0% means none of the caterpillars have been killed.

A short description of series [11]: log P by HPLC on reversed phase, neutral range. It counts as physicochemical. The note with it: reversed phase HPLC column, LC-UV, 0.001 molar ammonium acetate solution in water and acetonitrile. The procedure: Measurement of log P values was performed according to EEC directive 79/831 Annex V.A8 by HPLC (High Performance Liquid Chromatography) on reversed phase columns with the following methods. Instrument(s): Agilent 1100 LC system, Agilent MSD system, HTS PAL; Waters IClass Acquity UPLC, SQD2 (MS), PDA (UV). […] Calibration was done with straight-chain alkan-2-ones (with 3 to 16 carbon atoms) with known log P values (measurement of log P values using retention times with linear interpolation between successive alkanones). Lambda-max-values were determined using UV-spectra from 200 nm to 400 nm and the peak values of the chromatographic signals.

As a reminder, the mortality is the percentage killed. In turn, `O=C(c1cc(Cl)nc(Cl)c1)N(Cc1ncnn1-c1ncccn1)CC1CC1` [Example I-002] returned a mortality at 100 ppm in [1] of 80%. Also, the mortality at 20 ppm in series [2] stood at 100%. In addition, the pest or weed control at 160 µg/well in series [3] is 100%. The same molecule showed a mortality at 500 g/ha in series [4] of 100%.
Turning to `O=C(c1cccc(C(F)(F)F)c1)N(Cc1ncnn1-c1ncccn1)CC1CC1` [Example I-003], in series [5], the pest or weed control at 0.02 mg was determined as 100%. The mortality at 20 ppm in series [2] amounted to 100%. Besides, in series [3], the pest or weed control at 160 µg/well amounted to 100%. In series [4], the mortality at 500 g/ha was found to be 100%.
In the case of `O=C(NCCc1ncnn1-c1ncccn1)c1cc(Cl)cc(C(F)(F)F)c1` [Example I-006], the pest or weed control at 0.02 mg in series [5] worked out at 100%. The molecule also showed a mortality at 100 ppm in [1] of 100%. In series [2], this molecule registered a mortality at 20 ppm of 100%. The mortality at 20 mg/m2 in series [6] lay in the range of 85 to 100%. Also, the pest or weed control at 160 µg/well in series [3] was 100%. Besides, the mortality at 500 g/ha in series [4] was 100%.
Molecule `O=C(NC(CC1CC1)c1ncnn1-c1ncccn1)c1cc(Cl)cc(C(F)(F)F)c1` (stereo not drawn) [Example I-007] showed a mortality at 20 ppm in series [2] of 100%.
As for `O=C(NC(c1ncnn1-c1ncccn1)C1CC1)c1cc(Cl)cc(C(F)(F)F)c1` (stereo not drawn) [Example I-008], the pest or weed control at 0.02 mg in series [5] was determined as 95%. In addition, the mortality at 100 ppm in series [1] came to 100%. This molecule returned a mortality at 500 g/ha in series [4] of 100%.
The molecule `O=C(c1cc(Cl)cc(Cl)c1)N(Cc1ncnn1-c1ncccn1)CC1CC1` [Example I-010] gave a mortality at 20 ppm in series [2] of 100%. In addition, the pest or weed control at 160 µg/well in series [3] was found to be 100%. This molecule returned a mortality at 500 g/ha in series [4] of 100%.
Regarding `COCC(NC(=O)c1cc(Cl)cc(C(F)(F)F)c1)c1ncnn1-c1ncccn1` (stereo not drawn) [Example I-012, 3-Chloro-N-{2-methoxy-1-[1-(pyrimidin-2-yl)-1H-1,2,4-triazol-5-yl]ethyl}-5-(trifluoromethyl)-benzamide], the pest or weed control at 0.02 mg in series [5] amounted to 100%. The molecule further registered a mortality at 100 ppm in series [1] of 100%. The molecule further displayed a mortality at 20 ppm in series [2] of 100%. Moreover, the pest or weed control at 160 µg/well in series [3] is 100%. For the same molecule, the “efficacy (fleas dead or moribund)” value in series [7] was found to be 100%. Besides, the mortality at 500 g/ha in series [8] and in series [4] was 100% each time. Moreover, the “efficacy (ticks dead or moribund)” value in series [9] is 80%.
Take `COCC(NC(=O)c1cc(Cl)cc(C(F)(F)F)c1)c1ncnn1-c1ccc(C#N)cn1` (stereo not drawn) [Example I-013]: in [5], the pest or weed control at 0.02 mg worked out at 100%. In series [1], this molecule yielded a mortality at 100 ppm of 100%. The mortality at 500 g/ha in series [10] was 100%.
As for `O=C(NC1(c2ncnn2-c2ncccn2)CC1)c1cc(C(F)(F)F)cc(C(F)(F)F)c1` [Example I-014], in series [5], the pest or weed control at 0.02 mg was determined as 100%.
With `COC[C@H](NC(=O)c1cc(Cl)cc(Cl)c1)c1ncnn1-c1ccc(C#N)cn1` [Example I-017], in series [7], the “efficacy (fleas dead or moribund)” value is 90%. For the same molecule, the mortality at 500 g/ha in [10] was found to be 100%.
In series [10], `COC[C@H](NC(=O)c1cc(Cl)cc(OC(F)(F)F)c1)c1ncnn1-c1ccc(C#N)cn1` [Example I-018] had a mortality at 500 g/ha of 100%.
One may read the chromatographic logP as lipophilicity estimated from chromatographic retention. High values mean higher lipophilicity, low ones lower lipophilicity. For the molecule `NCCc1ncnn1-c1ncccn1` [a-002], the chromatographic logP in [11] came out at 0.01.
Molecule `N#Cc1ccc(-n2ncnc2CCN)nc1` [a-003] had a chromatographic logP in [11] of 0.87.
Still for that read-out and setting: under `COCC(NC(=O)c1cc(Cl)cc(C(F)(F)F)c1)C(N)=O` (stereo not drawn) [n-001, N-(1-amino-3-methoxy-1-oxopropan-2-yl)-3-chloro-5-(trifluoromethyl)benzamide] stands 1.94.
